# Assay results as given in patent US5422350A, “Nitrogen substituted acridine and cytochrome P450 inhibitors and methods of use” (priority 1992, dated 1995).
# Read-outs that look alike come from different tables or passages of the source.
# B1: EH: human liver expoxide hydrase (EH) (protein, UniProt P07099 1-455, looked up)
# Epoxide hydrolase 1: MWLEILLTSVLGFAIYWFISRDKEETLPLEDGWWGPGTRSAAREDDSIRPFKVETSDEEIHDLHQRIDKFRFTPPLEDSCFHYGFNSNYLKKVISYWRNEFDWKKQVEILNRYPHFKTKIEGLDIHFIHVKPPQLPAGHTPKPLLMVHGWPGSFYEFYKIIPLLTDPKNHGLSDEHVFEVICPSIPGYGFSEASSKKGFNSVATARIFYKLMLRLGFQEFYIQGGDWGSLICTNMAQLVPSHVKGLHLNMALVLSNFSTLTLLLGQRFGRFLGLTERDVELLYPVKEKVFYSLMRESGYMHIQCTKPDTVGSALNDSPVGLAAYILEKFSTWTNTEFRYLEDGGLERKFSLDDLLTNVMLYWTTGTIISSQRFYKENLGQGWMTQKHERMKVYVPTGFSAFPFELLHTPEKWVRFKYPKLISYSYMVRGGHFAAFEEPELLAQDIRKFLSVLERQ
# Tests used:
# [1] = tested on: hepatocytes from MC induced male rats; assay: Irreversible binding of 14C-tacrine and 14C-1-hydroxytacrine in MC induced rat hepatocytes; assay type: in vitro ADME; conditions: for inhibition of irreversible binding for both tacrine and 1-hydroxytacrine: relative ranking
# [2] = Irreversible protein binding of 14C-tacrine-derived radioactivity, human liver microsomes; conditions: for effect on irreversible protein binding / Tacrine equivalents irreversibly bound to 1 mg microsomal protein: Human Prep B, 60 min; for Tacrine equivalents irreversibly bound to 1 mg microsomal protein: N = 3
# Procedure: (§1) Total reaction volume was 3 mL. Reactions were stopped by freezing in liquid nitrogen or dry-ice acetone. […] D. J. Waxman and L. Axaroff, "Phenobarbital induction of cytochrome P-450 Gene Expression", BIOCHEM J, Vol. 281, pp. 577-592 (1992); P. Soucek and I. Gut, supra.
# (§2) C. N. Martin and R. C. Garner: "Covalent Binding In Vitro and In Vivo" in BIOCHEMICAL TOXICOLOGY: A PRACTICAL APPROACH, Eds. K. Snell and B. Mullock, IRL, Wash. D.C. pp. 109-126 (1987).
# [3] = In vitro metabolism of 14C-tacrine in rat liver microsomes; conditions: microsomes from pretreated rats vs control
# Procedure: as §1
# [4] = Irreversible protein binding of 14C-tacrine-derived radioactivity, rat liver microsomes; conditions: for effect of pretreatment on binding: rat; for effect on irreversible protein binding / Tacrine equivalents irreversibly bound to 1 mg microsomal protein: MC induced Rat, 60 min; for Tacrine equivalents irreversibly bound to 1 mg microsomal protein: N = 3
# Procedure: as §1, §2
# [5] = tested on: ethoxyresorufin O-deethylase; conditions: rat liver microsomes, Back et al. (1983); cited from earlier work
# [6] = Single-dose pharmacokinetic and metabolic disposition study of [14C]tacrine HCl in human male volunteers; assay type: in vivo; conditions: for mean AUC(O-tldc), dose proportionality: 10 and 40 mg oral, plasma
# Procedure: Plasma and red blood cells (RBC) were collected predose and for 48 hours postdose. Urine and feces were collected predose and for 96 hours postdose. Urine and plasma samples were analyzed directly by liquid scintillation spectrometry while RBC and fecal samples were solubilized prior to counting. […] Metabolic profiling of urine was performed by HPLC radioactivity detection. Metabolites were identified by HPLC/photodiode array/mass spectrometry.
# P450 1A2 [7] = assay: in vitro; conditions: for 1-hydroxytacrine equivalents irreversibly bound to 1 mg microsomal protein: 1-hydroxytacrine 0.5 μM
# Procedure: (§3) PHARMACOL., Vol. 42, pp. 767-772 (1990) was conducted. […] The effect of various enoxacin concentrations (8, 20, and 50 μM) on the extent of irreversible binding was examined in a separate study.
# [8] = Clinical drug interaction study, tacrine with cimetidine; assay type: in vivo, human; conditions: 40 mg tacrine with 300-mg four times a day cimetidine vs tacrine alone
# From the text: A. Somogyi and M. Muirhead, "Pharmacokinetic Interactions of Cimetidine", CLIN. PHARMACOKIN., Vol. 12, pp. 321-366 (1987).
# P450 1A2 [9] = conditions: cited from earlier work
# P450 1A2 [10] = molecular target: T1, P450 1A2 (Homo sapiens, UniProt P05177); assay: in vitro
# T1 sequence (P05177 2-516 limits assumed): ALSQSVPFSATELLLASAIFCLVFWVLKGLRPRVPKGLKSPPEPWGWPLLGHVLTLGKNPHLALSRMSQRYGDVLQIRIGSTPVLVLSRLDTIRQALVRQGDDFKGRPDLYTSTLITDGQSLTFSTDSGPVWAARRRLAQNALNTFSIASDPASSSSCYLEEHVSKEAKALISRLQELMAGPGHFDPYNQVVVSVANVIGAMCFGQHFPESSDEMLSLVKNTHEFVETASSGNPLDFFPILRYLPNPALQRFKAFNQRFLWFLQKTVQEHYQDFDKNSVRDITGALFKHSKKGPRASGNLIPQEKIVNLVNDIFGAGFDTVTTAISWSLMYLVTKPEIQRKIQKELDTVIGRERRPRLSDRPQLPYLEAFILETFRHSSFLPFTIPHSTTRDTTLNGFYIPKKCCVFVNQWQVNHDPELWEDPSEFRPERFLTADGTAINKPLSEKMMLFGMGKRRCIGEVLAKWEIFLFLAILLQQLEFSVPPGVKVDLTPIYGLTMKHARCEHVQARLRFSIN
# Procedure: as §3
# [11] = 1-hydroxytacrine 10 uM + inhibitor 50 uM
# [12] = tacrine 10 uM + inhibitor 50 uM
# [13] = 20 min, read-out: inhibition of 1-hydroxytacrine irreversible binding
# [14] = 20 min, read-out: inhibition of tacrine irreversible binding
molecule,measurement,setting,value
CCn1cnc(C(=O)NC)c1C(=O)NC [Ethimizol],"irreversible binding of 1-hydroxytacrine-derived radioactivity, Percent Control Value",[1]; [11],65.6%
same,inhibition of irreversible binding for both tacrine and 1-hydroxytacrine,[1],less of an effect
same,"irreversible binding of tacrine-derived radioactivity, Percent Control Value",[1]; [12],80.1%
"Nc1c2c(nc3ccc(O)cc13)CCCC2 [7-Hydroxytacrine, 7-hydroxytacrine]",levels over time,[2]; time course through 1 hour,levels rise then fall over time
CCC1(c2ccccc2)C(=O)NC(=O)NC1=O [Phenobarbital],effect of pretreatment (induction) on 1-hydroxytacrine formation,[3],only a minimal effect on 1-hydroxytacrine formation
same,effect of pretreatment on binding,[4],little or no effect on binding
"CCN(CC)CCCC(C)Nc1ccnc2cc(Cl)ccc12 (stereo not shown) [Chloroquine, 7-chloro-4-(4-diethylamino-1-methylbutylamino)quinoline]",inhibition of ethoxyresorufin O-deethylase activity,[5],inhibitors of ethoxyresorufin O-deethylase activity
Nc1c2c(nc3ccccc13)CCC(O)C2 (stereo not shown) [2-hydroxytacrine],"mean AUC(O-tldc), dose proportionality",[6],increased greater than dose proportionally
"Nc1c2c(nc3ccccc13)CCCC2O (stereo not shown) [1-Hydroxytacrine, 1-hydroxytacrine]","mean AUC(O-tldc), dose proportionality",[6],increased greater than dose proportionally
same,elimination rate from plasma,[6]; all volunteers,appeared to be limited by the rate of formation
same,excretion and 1-hydroxytacrine plasma concentrations in cigarette smokers,[6]; smokers compared to nonsmokers,decreased excretion and lower 1-hydroxytacrine plasma concentrations
same,irreversible binding to human microsomal protein,P450 1A2 [7]; 1-hydroxytacrine,found to bind irreversibly
same,1-hydroxytacrine equivalents irreversibly bound to 1 mg microsomal protein,"P450 1A2 [7]; enoxacin 0.0, 20 min",0.018 ± 0.001
same,irreversible binding of derived radioactivity to microsomal protein,"P450 1A2 [7]; Table 6, deletion of NADPH",no irreversible
same,higher plasma concentrations,[8],approximately 40%
"Cc1nc2c([nH]1)c(=O)n(C)c(=O)n2Cc1ccco1 [Furafylline, 1H-purine-2,6-dione, 3-(2-furanylmethyl)-3,7-dihydro-1,8-dimethyl]","irreversible binding of 1-hydroxytacrine-derived radioactivity, Percent Control Value",[1]; [11],31.7%
same,inhibition of irreversible binding for both tacrine and 1-hydroxytacrine,[1],most effective inhibitor
same,"irreversible binding of tacrine-derived radioactivity, Percent Control Value",[1]; [12],31.6%
N[C@@H](CCC(=O)N[C@@H](CS)C(=O)NCC(=O)O)C(=O)O [Glutathione],detectable adducts with the reactive intermediate,[2],failed to produce detectable adducts
same,effect on irreversible binding,[2],dramatic reduction in irreversible binding
same,effect on irreversible protein binding,[2]; with GSH (5 mM),85.0
same,Tacrine equivalents irreversibly bound to 1 mg microsomal protein,[2]; with GSH (5 mM),0.031 ± 0.001 nmol
same,"irreversible binding of 1-hydroxytacrine-derived radioactivity, Percent Control Value",[1]; 1-hydroxytacrine 10 uM + glutathione 5 mM,49.1%
same,"irreversible binding of tacrine-derived radioactivity, Percent Control Value",[1]; tacrine 10 uM + glutathione 5 mM,62.6%
same,effect on irreversible protein binding,[4]; with GSH (5 mM),58.3
same,Tacrine equivalents irreversibly bound to 1 mg microsomal protein,[4]; with GSH (5 mM),0.058 ± 0.005 nmol
"CN/C(=N/CCSCc1nc[nH]c1C)NC#N [Cimetidine, N-cyano-N'-methyl-N""-[2[[(5-methyl-1H-imidazol-4-yl)methyl]thio]ethyl]guanidine]",inhibition of P450 enzymes including P450 1A2,P450 1A2 [9],inhibitor of P450 enzymes including P450 1A2
NNC(=O)c1ccncc1 [Isoniazid],effect of pretreatment (induction) on 1-hydroxytacrine formation,[3],markedly increased 1-hydroxytacrine formation
same,effect of pretreatment on binding,[4],little or no effect on binding
"COc1cc(NC(C)CCCN)c2ncccc2c1 (stereo not shown) [Primaquine, 8-(4-amino-1-methylbutylamino)-6-methoxyquinoline]",inhibition of ethoxyresorufin O-deethylase activity,[5],inhibitors of ethoxyresorufin O-deethylase activity
CCn1cc(C(=O)O)c(=O)c2cc(F)c(N3CCNCC3)nc21 [Enoxacin],1-hydroxytacrine equivalents irreversibly bound to 1 mg microsomal protein,"P450 1A2 [7]; enoxacin 8.0, 20 min",0.017 ± 0.001
same,1-hydroxytacrine equivalents irreversibly bound to 1 mg microsomal protein,"P450 1A2 [7]; enoxacin 20.0, 20 min",0.014 ± 0.001
same,1-hydroxytacrine equivalents irreversibly bound to 1 mg microsomal protein,"P450 1A2 [7]; enoxacin 50.0, 20 min",0.009 ± 0.001
same,Tacrine equivalents irreversibly bound to 1 mg microsomal protein,"P450 1A2 [7]; Table 6, tacrine 0.3 μM, line below enoxacin 50.0 (concentration not given), 20 min",0.023 ± 0.002
same,Tacrine equivalents irreversibly bound to 1 mg microsomal protein,"P450 1A2 [7]; Table 6, tacrine 0.3 μM, line of enoxacin 20.0, 20 min",0.036 ± 0.008
same,Tacrine equivalents irreversibly bound to 1 mg microsomal protein,"P450 1A2 [7]; Table 6, tacrine 0.3 μM, line of enoxacin 50.0, 20 min",0.028 ± 0.001
same,Tacrine equivalents irreversibly bound to 1 mg microsomal protein,"P450 1A2 [7]; tacrine 0.5 μM + enoxacin 50 μM, 5 min",0.009 ± 0.002 nmol
same,Tacrine equivalents irreversibly bound to 1 mg microsomal protein,"P450 1A2 [7]; tacrine 0.5 μM + enoxacin 50 μM, 10 min",0.017 ± 0.003 nmol
same,Tacrine equivalents irreversibly bound to 1 mg microsomal protein,"P450 1A2 [7]; tacrine 0.5 μM + enoxacin 50 μM, 20 min",0.026 ± 0.002 nmol
same,Tacrine equivalents irreversibly bound to 1 mg microsomal protein,"P450 1A2 [7]; tacrine 0.5 μM + enoxacin 50 μM, 45 min",0.052 ± 0.006 nmol
same,inhibition of tacrine irreversible binding and biotransformation,"P450 1A2 [10]; 50 μM enoxacin vs 8, 20 μM",greatest inhibition
same,inhibition at 8 µM,P450 1A2 [10]; [13],8.2%
same,inhibition at 20 µM,P450 1A2 [10]; [13],22.2%
same,inhibition at 50 µM,P450 1A2 [10]; [13],51.7%
same,inhibition at 8 µM,P450 1A2 [10]; [14],14.4%
same,inhibition at 20 µM,P450 1A2 [10]; [14],29.8%
same,inhibition at 50 µM,P450 1A2 [10]; [14],43.4%
same,effect on the binding of 1-hydroxytacrine,"P450 1A2 [10]; enoxacin 8, 20, 50 μM",inhibitory effect
same,inhibition at 50 µM,P450 1A2 [10]; read-out: inhibition of extent of irreversible binding (maximum),≤ 73%
same,P450 1A2 inhibition,P450 1A2 [9],selective inhibitor of P450 1A2
same,"irreversible binding of 1-hydroxytacrine-derived radioactivity, Percent Control Value",[1]; [11],79.8%
same,inhibition of irreversible binding for both tacrine and 1-hydroxytacrine,[1],less of an effect
same,"irreversible binding of tacrine-derived radioactivity, Percent Control Value",[1]; [12],78.9%
"Cc1ccc2cc3c(ccc4ccccc43)c3c2c1CC3 [MC, 3-methylcholanthrene]",effect of pretreatment (induction) on 1-hydroxytacrine formation,[3],Less 1-hydroxytacrine was observed
same,increase in binding compared to control rat,[4]; MC induced rat,~3 fold
B1,detectable adducts with the reactive intermediate,[2],failed to produce detectable adducts
same,effect on irreversible binding,"[2]; 14C tacrine incubations (Table 3, human and rat)",only a slight decrease in binding
same,effect on irreversible protein binding,[2]; with EH (100 ug),35.3
same,Tacrine equivalents irreversibly bound to 1 mg microsomal protein,[2]; with EH (100 ug),0.134 ± 0.026 nmol
same,effect on irreversible protein binding,[4]; with EH (100 ug),16.6
same,Tacrine equivalents irreversibly bound to 1 mg microsomal protein,[4]; with EH (100 ug),0.116 ± 0.007 nmol
